A short description of series [1]: Lipophilicity, log D of the compound. Format: physicochemical. To be noted: octanol/water.
The nature of series [2]: Inhibition of ENaC in human Primary bronchial epithelial cell. It is filed as cell-based.
For series [3], the system named is Ovis aries. Nature of the series: Mucociliary clearance activity in sheep mucociliary clearance model assessed as effective dose administered as inhalation pre-administered for 4 to 6 hrs followed by aerosolized technetium-labeled sulfur colloid (99mTc-Sc , 20 mCi) addition by Scintigraphic imaging based analysis. It is filed as functional. As to conditions: time 4-6 hrs.

Series [4] can be described thus: Drug uptake in male Sprague-Dawley rat Bronchoalveolar lavage assessed as fold decrease BAL level at 0.3 mg/kg, IT measured upto 6 hrs by LC-MS/MS analysis. It is filed as ADME, organism-based. As to conditions: in vivo, other.
Series [5] is described as follows: Plasma protein binding in dog. As to conditions: read-out: PPB (converted). It is filed as ADME, cell-free, Canis lupus familiaris.
Series [6] deals with Potassium voltage-gated channel subfamily A member 5 (Homo sapiens) (UniProt P22460). Nature of the series: Inhibition of Kv1.5 (unknown origin) at 10 uM by automated patch clamp method. A general note: Patch clamp records ionic current or voltage across a cell membrane.
Chain of Potassium voltage-gated channel subfamily A member 5 (Homo sapiens) (P22460 whole entry): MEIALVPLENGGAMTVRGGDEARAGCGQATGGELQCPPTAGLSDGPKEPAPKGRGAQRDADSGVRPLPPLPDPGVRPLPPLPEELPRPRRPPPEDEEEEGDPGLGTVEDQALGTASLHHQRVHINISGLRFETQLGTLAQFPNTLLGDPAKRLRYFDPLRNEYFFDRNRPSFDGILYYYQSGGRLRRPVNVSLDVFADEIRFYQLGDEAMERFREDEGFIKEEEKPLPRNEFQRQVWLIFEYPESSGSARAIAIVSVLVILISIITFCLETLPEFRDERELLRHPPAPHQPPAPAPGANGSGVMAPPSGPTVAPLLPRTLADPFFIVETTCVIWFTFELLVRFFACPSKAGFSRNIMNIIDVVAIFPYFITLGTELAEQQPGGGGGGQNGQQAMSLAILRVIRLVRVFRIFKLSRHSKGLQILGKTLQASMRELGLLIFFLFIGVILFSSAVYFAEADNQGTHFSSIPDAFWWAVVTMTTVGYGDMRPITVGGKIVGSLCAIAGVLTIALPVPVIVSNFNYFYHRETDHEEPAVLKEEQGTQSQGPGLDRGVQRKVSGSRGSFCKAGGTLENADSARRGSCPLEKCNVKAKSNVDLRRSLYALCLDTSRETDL
Series [7] is described as follows: Plasma protein binding in rat. It is filed as ADME, cell-free. To be noted: read-out: PPB (converted).
Series [8] in a line: Plasma protein binding in human. It is filed as ADME, cell-free. To be noted: read-out: PPB (converted).
Series [9] in a line: Drug uptake in male Sprague-Dawley rat Bronchoalveolar lavage assessed as decrease BAL level at 0.3 mg/kg, IT measured after 6 hrs by LC-MS/MS analysis relative to control. Format: ADME, organism-based. As to conditions: in vivo, other.
For series [10], the target named is Voltage-gated inwardly rectifying potassium channel KCNH2 (Homo sapiens, UniProt Q12809). Nature of the series: Inhibition of human ERG at 30 uM by automated patch clamp method. Format: toxicity.
Chain of Voltage-gated inwardly rectifying potassium channel KCNH2 (Q12809 whole entry): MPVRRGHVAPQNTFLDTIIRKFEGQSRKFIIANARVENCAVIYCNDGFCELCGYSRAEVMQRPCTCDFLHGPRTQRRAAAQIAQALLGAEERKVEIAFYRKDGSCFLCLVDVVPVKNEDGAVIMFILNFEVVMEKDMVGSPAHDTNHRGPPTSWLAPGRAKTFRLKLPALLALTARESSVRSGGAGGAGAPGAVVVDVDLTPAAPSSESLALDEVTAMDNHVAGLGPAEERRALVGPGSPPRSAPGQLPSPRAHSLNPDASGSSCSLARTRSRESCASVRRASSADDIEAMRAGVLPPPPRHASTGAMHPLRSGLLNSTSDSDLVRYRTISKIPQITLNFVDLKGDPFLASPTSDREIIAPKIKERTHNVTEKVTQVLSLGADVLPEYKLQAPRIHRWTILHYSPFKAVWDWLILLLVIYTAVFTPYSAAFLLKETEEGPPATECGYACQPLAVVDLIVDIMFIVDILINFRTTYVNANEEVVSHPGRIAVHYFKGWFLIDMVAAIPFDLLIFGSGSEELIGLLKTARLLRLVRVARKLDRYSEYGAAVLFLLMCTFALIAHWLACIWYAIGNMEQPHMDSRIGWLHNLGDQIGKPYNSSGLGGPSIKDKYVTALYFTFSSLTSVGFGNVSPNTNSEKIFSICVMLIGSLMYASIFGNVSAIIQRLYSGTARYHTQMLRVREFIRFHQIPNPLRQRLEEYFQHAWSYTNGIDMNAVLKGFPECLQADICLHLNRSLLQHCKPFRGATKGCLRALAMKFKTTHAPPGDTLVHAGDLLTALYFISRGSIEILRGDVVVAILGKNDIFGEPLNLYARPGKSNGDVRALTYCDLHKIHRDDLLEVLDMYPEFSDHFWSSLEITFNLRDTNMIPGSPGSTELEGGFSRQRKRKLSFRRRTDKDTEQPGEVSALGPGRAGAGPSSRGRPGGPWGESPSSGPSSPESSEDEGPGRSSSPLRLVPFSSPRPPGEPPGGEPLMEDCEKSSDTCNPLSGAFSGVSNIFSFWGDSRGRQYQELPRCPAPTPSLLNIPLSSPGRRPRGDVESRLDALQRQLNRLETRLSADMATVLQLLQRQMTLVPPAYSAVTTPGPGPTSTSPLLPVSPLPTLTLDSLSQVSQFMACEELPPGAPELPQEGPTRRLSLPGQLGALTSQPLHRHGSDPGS
The next series has as its system Cytochrome P450. Nature of the series: Inhibition of CYP450 (unknown origin). It is filed as ADME, protein assay. As to conditions: human.
For series [11], the target named is Voltage-dependent L-type calcium channel subunit alpha-1C (Homo sapiens, UniProt Q13936). Briefly: Inhibition of Cav1.2 (unknown origin) at 10 uM by automated patch clamp method.
Series [12] in a line: Mutagenicity in Salmonella typhimurium strains by Ames test. It is filed as toxicity. To be noted: salmonella enterica subsp. enterica serovar typhimurium.
Series [13] has as its target Sodium channel protein type 5 subunit alpha (Homo sapiens, UniProt Q14524). Briefly: Inhibition of Nav1.5 (unknown origin) 10 uM by automated patch clamp method.
The subject of series [14] is Ovis aries. Nature of the series: Mucociliary clearance activity in sheep mucociliary clearance model assessed as assessed as improvement in lung residence time administered as inhalation pre-administered for 4 to 6 hrs followed by aerosolized technetium-labeled sulfur colloid (99mTc-Sc , 20 mCi) addition by Scintigraphic imaging based analysis. It is filed as functional, organism-based. To be noted: time 4-6 hrs.

A short description of series [15]: Drug uptake in male Sprague-Dawley rat lung at 0.3 mg/kg, IT measured upto 6 hrs by LC-MS/MS analysis. Format: ADME, organism-based. As to conditions: in vivo, other.

Activity calls are given as the source filed them. The calls are words filed in the database; no cut-off is given here. A value given as a limit tells only on which side of the number the result lay.

Chain of Sodium channel protein type 5 subunit alpha (Q14524 whole entry): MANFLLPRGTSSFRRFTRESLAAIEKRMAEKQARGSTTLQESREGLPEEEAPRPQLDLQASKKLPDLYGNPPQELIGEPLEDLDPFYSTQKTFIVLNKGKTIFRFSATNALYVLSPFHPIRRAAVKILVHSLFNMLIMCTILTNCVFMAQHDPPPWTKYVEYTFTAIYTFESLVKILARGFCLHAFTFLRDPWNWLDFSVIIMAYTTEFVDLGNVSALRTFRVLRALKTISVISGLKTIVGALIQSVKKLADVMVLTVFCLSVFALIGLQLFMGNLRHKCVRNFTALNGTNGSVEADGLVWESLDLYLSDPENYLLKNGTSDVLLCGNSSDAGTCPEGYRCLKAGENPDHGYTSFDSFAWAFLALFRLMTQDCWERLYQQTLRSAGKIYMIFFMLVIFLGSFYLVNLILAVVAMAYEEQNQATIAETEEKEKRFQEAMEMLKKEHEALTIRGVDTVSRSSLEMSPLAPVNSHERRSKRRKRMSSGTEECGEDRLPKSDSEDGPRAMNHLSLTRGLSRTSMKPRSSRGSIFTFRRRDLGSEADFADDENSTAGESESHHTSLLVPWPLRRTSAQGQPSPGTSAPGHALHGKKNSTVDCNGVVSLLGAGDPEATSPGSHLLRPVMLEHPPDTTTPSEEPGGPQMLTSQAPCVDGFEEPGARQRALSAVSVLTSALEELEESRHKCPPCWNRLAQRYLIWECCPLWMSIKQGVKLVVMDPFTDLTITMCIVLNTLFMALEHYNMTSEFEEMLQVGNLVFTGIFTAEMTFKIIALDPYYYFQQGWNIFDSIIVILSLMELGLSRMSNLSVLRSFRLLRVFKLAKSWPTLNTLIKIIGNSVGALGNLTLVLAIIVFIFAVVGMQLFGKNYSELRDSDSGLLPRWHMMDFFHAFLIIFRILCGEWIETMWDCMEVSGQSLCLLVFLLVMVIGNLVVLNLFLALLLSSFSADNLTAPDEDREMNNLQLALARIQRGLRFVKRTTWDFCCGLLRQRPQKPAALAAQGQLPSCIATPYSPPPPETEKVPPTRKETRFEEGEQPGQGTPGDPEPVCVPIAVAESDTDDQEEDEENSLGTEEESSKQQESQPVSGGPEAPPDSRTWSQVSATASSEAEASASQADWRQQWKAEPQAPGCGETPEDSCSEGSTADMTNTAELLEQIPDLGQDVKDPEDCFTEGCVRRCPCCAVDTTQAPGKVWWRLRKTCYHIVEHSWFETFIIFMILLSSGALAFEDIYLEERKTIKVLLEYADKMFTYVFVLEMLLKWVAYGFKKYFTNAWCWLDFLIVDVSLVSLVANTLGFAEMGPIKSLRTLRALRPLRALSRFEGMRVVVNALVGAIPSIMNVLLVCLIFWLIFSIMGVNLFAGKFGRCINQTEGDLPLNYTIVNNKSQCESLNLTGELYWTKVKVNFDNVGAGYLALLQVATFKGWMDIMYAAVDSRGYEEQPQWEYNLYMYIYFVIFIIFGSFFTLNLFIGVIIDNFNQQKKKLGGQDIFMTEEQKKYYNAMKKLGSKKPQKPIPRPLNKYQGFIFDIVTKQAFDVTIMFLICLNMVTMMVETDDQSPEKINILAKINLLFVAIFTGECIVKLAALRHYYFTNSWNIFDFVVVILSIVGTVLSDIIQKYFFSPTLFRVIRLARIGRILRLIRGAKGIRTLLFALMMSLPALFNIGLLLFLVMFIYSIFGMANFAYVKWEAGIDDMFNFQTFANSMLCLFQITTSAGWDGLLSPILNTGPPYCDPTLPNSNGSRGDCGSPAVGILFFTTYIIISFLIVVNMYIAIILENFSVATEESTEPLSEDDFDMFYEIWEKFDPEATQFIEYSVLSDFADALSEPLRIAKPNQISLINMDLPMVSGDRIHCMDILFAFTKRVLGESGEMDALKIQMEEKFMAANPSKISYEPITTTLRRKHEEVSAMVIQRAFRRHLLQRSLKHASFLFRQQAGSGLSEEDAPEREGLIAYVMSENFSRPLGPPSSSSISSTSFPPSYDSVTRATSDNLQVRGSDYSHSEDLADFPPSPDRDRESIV

For the compound `CCn1c(CNC(=O)c2nc(C)cnc2N)[n+](C)c2ccc(OC)cc21`, the pH-dependent lipophilicity (logD) (in general, lipophilicity at a set pH, counting ionised and neutral species) in series [1] was less than 1. The IC50 (usually the concentration that inhibits the measured activity by half) in [2] stood at 4 nM.
For `CCn1c(CNC(=O)c2nc3cc[nH]c3nc2N)[n+](CC)c2ccc(C(=O)NC3CCN(C[C@H](O)[C@@H](O)[C@H](O)[C@H](O)CO)CC3)cc21.O=C(O)C(F)(F)F.O=C([O-])C(F)(F)F`, the pH-dependent lipophilicity (logD) in [1] is 1. Besides, the ED100 with Ovis aries [3] stood at 0.031 mg/kg. For the same compound, in series [2], the half-maximal inhibitory concentration (IC50) is 7.1 nM.
For `CCn1c(CNC(=O)c2nc3cc[nH]c3nc2N)[n+](CC)c2ccc(OCCN)cc21`, the pH-dependent lipophilicity (logD) in series [1] was 1. This compound also returned an IC50 in series [2] of 14 nM.
For `CCn1c(CNC(=O)c2nc3cc[nH]c3nc2N)[n+](CC)c2ccc(OC)cc21`, in that order: 0.9 and 2.5 nM.
For `CCn1c(CNC(=O)c2nc3cc[nH]c3nc2N)[n+](CC)c2ccc(C(=O)N3CCC(N(C[C@H](O)[C@@H](O)[C@H](O)[C@H](O)CO)C[C@H](O)[C@@H](O)[C@H](O)[C@H](O)CO)CC3)cc21.O=C(O)C(F)(F)F.O=C([O-])C(F)(F)F`, in series [4], the “fold change (FC)” value was determined as 3. For the same compound, the fraction unbound in series [5], in series [7] and in [8] was 0.9 in each case. The compound further yielded a logD in series [1] of 2.8. Besides, the inhibition result in series [6] is “inactive”. In addition, the ED100 in the series on Ovis aries [3] is 0.009 mg/kg. Moreover, the half-maximal inhibitory concentration (IC50) in series [2] was 57 nM. Moreover, in series [9], the Drug uptake turned out to be 13%. Further, the “inhibition (INH)” value (in series [10]; with Cytochrome P450; in series [11]; in series [13]) was “Not_active” throughout. The Activity result in series [12] was “Non-toxic”.
For the compound `CCn1c(CNC(=O)c2nc3cc[nH]c3nc2N)[n+](C)c2ccc(OC)cc21.O=C[O-]`, in [4], the “fold change (FC)” value was found to be 50. In the series with Ovis aries [14], the outcome was Active. This compound also returned a log distribution coefficient (logD) in series [1] of 1. Moreover, the ED100 in the series with Ovis aries [3] stood at 0.158 mg/kg. In series [2], inhibition was half-maximal at 7.7 nM (IC50). For the same compound, the Drug uptake entry in [15] is reported as “Active”.
`CCn1c(CNC(=O)c2nc3cc[nH]c3nc2N)[n+](CC)c2ccc(OCCCN)cc21`: the logD in [1] was determined as 1.5. This compound also had a 50% inhibitory concentration (IC50) in [2] of 7 nM.
`CCn1c(CNC(=O)c2nc3cc[nH]c3nc2N)[n+](CC)c2ccc(C(=O)NCCN3CCC(N(C[C@H](O)[C@@H](O)[C@H](O)[C@H](O)CO)C[C@H](O)[C@@H](O)[C@H](O)[C@H](O)CO)CC3)cc21.O=C(O)C(F)(F)F.O=C([O-])C(F)(F)F`: the ED100 in the series on Ovis aries [3] came to 0.025 mg/kg. For the same compound, 38 nM corresponded to half-maximal inhibition in series [2] (IC50).
`CCn1c(CNC(=O)c2nc3ccn(C)c3nc2N)[n+](C)c2ccc(OC)cc21` displayed a logD in series [1] of 0.8. Moreover, the 50% inhibitory concentration (IC50) in series [2] is greater than 7700 nM.
In series [1], `CCn1c(CNC(=O)c2nc3cc[nH]c3nc2N)[n+](CC)c2ccc(C(=O)NCCCN(C[C@H](O)[C@@H](O)[C@H](O)[C@H](O)CO)C[C@H](O)[C@@H](O)[C@H](O)[C@H](O)CO)cc21.O=C(O)C(F)(F)F.O=C([O-])C(F)(F)F` displayed a pH-dependent lipophilicity (logD) of 1. In the series with Ovis aries [3], the ED100 came out at 0.026 mg/kg. Also, 18 nM corresponded to half-maximal inhibition in [2] (IC50).
Taken in the same sequence, the figures for `CCn1c(CNC(=O)c2nc3cc[nH]c3nc2N)[n+](CC)c2ccc(OCCCN(C[C@H](O)[C@@H](O)[C@H](O)[C@H](O)CO)C[C@H](O)[C@@H](O)[C@H](O)[C@H](O)CO)cc21.O=C(O)C(F)(F)F.O=C([O-])C(F)(F)F` were 1, 0.019 mg/kg and 22 nM.
Consider `CCn1c(CNC(=O)c2nc3cc[nH]c3nc2N)[n+](CC)c2ccc(OCCNC(=N)N)cc21`, for which the 50% inhibitory concentration (IC50) in [2] is 2.5 nM.
For the compound `CCn1c(CNC(=O)c2nc(Cl)cnc2N)[n+](C)c2ccc(OC)cc21`, in [1], the logD was 0.9. In series [2], this compound gave a 50% inhibitory concentration (IC50) of 2 nM.
Regarding `CCc1cnc(N)c(C(=O)NCc2n(CC)c3cc(OC)ccc3[n+]2C)n1`, the logD in [1] came out at 0.9. Moreover, the IC50 in series [2] was 224 nM.
`CCn1c(CNC(=O)c2nc3cc[nH]c3nc2N)[n+](CC)c2ccc(C(=O)NC3CCNCC3)cc21` returned an IC50 in series [2] of 7.2 nM.
`CCn1c(CNC(=O)c2nc(Br)cnc2N)[n+](C)c2ccc(OC)cc21.[I-]`: the “fold change (FC)” value in series [4] is 200. Besides, the log distribution coefficient (logD) in [1] turned out to be 0.8. The ED100 in the series on Ovis aries [3] is greater than 0.101 mg/kg. Further, the IC50 in series [2] came to 3 nM. Moreover, in series [15], the Drug uptake result is listed as “Not_active”.
For `CCn1c(CNC(=O)c2nc3cc[nH]c3nc2N)[n+](CC)c2ccc(C(=O)N3CCC(N)CC3)cc21.Cl.[I-]`, in the series with Ovis aries [14], the result was Active. This compound showed a pH-dependent lipophilicity (logD) in series [1] of 0.6. In the series on Ovis aries [3], the ED100 was determined as 0.025 mg/kg. The same compound showed an IC50 in [2] of 11 nM.
Consider `CCn1c(CNC(=O)c2nc3cc[nH]c3nc2N)[n+](CC)c2ccc(C(=O)NCCN3CCC(N)CC3)cc21`, for which the IC50 in series [2] came to 10 nM.
`CCn1c(CNC(=O)c2nc3cc[nH]c3nc2N)[n+](CC)c2ccc(C(=O)NCCCN)cc21` showed a logD in series [1] of 0. For the same compound, the half-maximal inhibitory concentration (IC50) in series [2] turned out to be 15 nM.
With `CCn1c(CNC(=O)c2nc3cc[nH]c3nc2N)[n+](CC)c2ccc(OCCN(C[C@H](O)[C@@H](O)[C@H](O)[C@H](O)CO)C[C@H](O)[C@@H](O)[C@H](O)[C@H](O)CO)cc21`, the half-inhibitory concentration (IC50) in [2] was 51 nM.

The values above are taken from ChEMBL document CHEMBL6120981, “Optimisation of a novel series of ENaC inhibitors, leading to the selection of the long-acting inhaled clinical candidate ETD001, a potential new treatment for cystic fibrosis” (Eur J Med Chem, 2025).
